Measurements published in patent US8691576B2, “Regeneration and mass propagation of Jatropha curcas through somatic embryogenesis” (Joil (S) Pte Ltd., priority 2008, dated 2014).

What was measured:
Format in all cases: cell-based
[1] = tested on: Jatropha curcas somatic embryos (TISEs); experiment: Effect of GA3 on germination of somatic embryos; details: for Hypocotyl Extension % / Root Growth % / Viable Germination SE % / Hypocotyl Extension SE Count / Root Growth SE Count / Viable Germination SE Count: three weeks; for Hypocotyl Extension SE Count / Root Growth SE Count / Viable Germination SE Count: 30 explants;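 for all read-outs here: groups of 20–30 TISEs per medium were moved onto each medium and scored for germination traits, with GA3-free media as the comparison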
[2] = tested on: Jatropha curcas somatic embryo explants; experiment: Re-initiation of somatic embryogenesis from matured somatic embryos on solid DGA and derivative media; details: for production of secondary somatic embryos and embryogenic calli: supplementation in solid DGA-type medium
Method: Somatic embryos were matured in 2,4-D-free liquid MS medium and hypocotyl-root apex tissues were excised from somatic embryos larger than 0.5 cm. Those smaller than 0.5 cm were cultured intact. The explants were cultured in various DGA or its derivative solid medium. […] 2,4-D and kinetin could be added as optional supplements (not shown).

[3] = tested on: Jatropha curcas embryogenic calli; experiment: Embryogenic liquid suspension culture; details: KNO3 increased to 1.9 g/l to 3.8 g/l
Method: FIGS. 5A-5D show embryogenic liquid suspension culture. About 50 mg embryogenic calli produced in solid DGA medium were inoculated in 20 ml modified DGA liquid media. Embryos larger than 2 mm were removed before inoculation. Subculture was done every two weeks. Photos were taken after 2 subcultures. FIG. 5A: 20 g/l sucrose, 1 g/l glutamine, 0.5 g/l asparagine, no 2,4-D. FIG. 5B: 20 g/l sucrose, 1 g/l glutamine, 0.5 g/l asparagine, 0.2 g/1 2,4-D. FIG. 5C: 30 g/l sucrose, 1 g/l glutamine, 0.5 g/l asparagine, 0.2 g/1 2,4-D. FIG. 5D: 20 g/l sucrose, 1 g/l glutamine, 0.5 g/l asparagine, 1 g/1 2,4-D. Arrow indicates the non-embryogenic ball-shaped calli. Scale bar represents 1 cm.
Liquid cultures were performed in 65 mm plastic cylinder containers or 250 ml glass conical flasks that were placed in shakers set at 80 rpm, 28° C. constant temperature and 16-8 hours day-light cycles.
Effects 2,4-D and carbon source on establishment of somatic embryogenic liquid suspension culture was investigated. […] At sucrose level ranging from 10-30 g/l, continued culture lead to maturation of the somatic embryo with no new initiation of secondary embryos (FIG. 5A). The somatic embryos thus produced share good synchrony and are excellent materials for re-induction of TIISEs (Refer to Example 13). […] The suspension cultures were stable for months if large embryos were removed. Further, sucrose concentration needs to be reduced below about 20 g/l (compare FIGS. 5B and 5C).

[4] = tested on: Jatropha curcas somatic embryos; experiment: Effect of abscisic acid in maturation media on germination; details: ABA 0-5 mg/l in DGA or EGA media or variants
Method: To further explore methods to improve germination, abscisic acid (ABA) between 0-5 mg/l was supplemented in DGA or EGA media or their variants with 10-30 g/l sucrose and 20-60 g/1 maltose. […] Examples of the effects are shown in Table 10, where 20-30 TISEs were transferred to various media listed below. Except in ¼ strength MS medium, few somatic embryos germinated without GA3. […] Reducing the strength of basal salts was likewise beneficial to germination of somatic embryos.

[5] = tested on: Jatropha curcas immature embryo and endosperm explants; experiment: Effect of kinetin on TISE and TIISE formation; details: for TIISE (%) >5 SE / TIISE (%) >10 SE / TIISE (%) Total / TISE (%): 5 mg/l 2,4-D, 6 weeks, then DGA 4 weeks
Method: Developing fruits were surface-sterilized and dissected to yield 120 immature embryos that were shorter than 1.5 cm in length. After cutting into halves, the explants were cultured in media with a series of kinetin concentrations. On the 5th day, the endosperm tissues were separated from the embryos, further reduced into small pieces of about 0.25 cm^2 and transferred to the fresh medium with the same kinetin concentrations. After one subcultures (6 weeks in total), the calli were transferred to DGA medium and cultured for one month. Twenty immature embryos were used in each treatment. It was observed that TISEs were almost exclusively formed on endosperm tissues where the embryos had been detached after three's culture.

[6] = Full strength MS salt and B5 vitamins, GA3 2 mg/L
[7] = Full strength MS salt and B5 vitamins, GA3 3 mg/L
[8] = ¼ Strength MS salt and B5 vitamins, GA3 2 mg/L
[9] = ¼ Strength MS salt and B5 vitamins, GA3 3 mg/L
[10] = ½ Strength MS salt and B5 vitamins, GA3 2 mg/L
[11] = ½ Strength MS salt and B5 vitamins, GA3 3 mg/L

`C=C1C[C@]23C[C@@]1(O)CC[C@H]2[C@@]12C=C[C@H](O)[C@@](C)(C(=O)O1)[C@H]2[C@@H]3C(=O)O` [GA3, gibberellic acid] was tested, and the “Hypocotyl Extension %” value [1, 6] was 30%, the “Root Growth %” value [1, 6] was 53% and the “Viable Germination SE %” value [1, 6] was 30%. For the same compound, the “Hypocotyl Extension SE Count” value [1, 6] was 16, the “Root Growth SE Count” value [1, 6] was 16 and the “Viable Germination SE Count” value [1, 6] was 9. For the same compound, the “Hypocotyl Extension %” value [1, 7] was 44%, the “Root Growth %” value [1, 7] was 37% and the “Viable Germination SE %” value [1, 7] was 5%. The “Hypocotyl Extension SE Count” value [1, 7] was 16, the “Root Growth SE Count” value [1, 7] was 11 and the “Viable Germination SE Count” value [1, 7] was 2. For the same compound, the “germination of somatic embryos” value ([1]; many media tested) was “significantly improved germination in many media tested”, the “Hypocotyl Extension %” value [1, 8] was 32% and the “Root Growth %” value [1, 8] was 43%. For the same compound, the “Viable Germination SE %” value [1, 8] was 19%, the “Hypocotyl Extension SE Count” value [1, 8] was 14 and the “Root Growth SE Count” value [1, 8] was 13. The “Viable Germination SE Count” value [1, 8] was 6, the “Hypocotyl Extension %” value [1, 9] was 26% and the “Root Growth %” value [1, 9] was 47%. For the same compound, the “Viable Germination SE %” value [1, 9] was 8%, the “Hypocotyl Extension SE Count” value [1, 9] was 12 and the “Root Growth SE Count” value [1, 9] was 14. For the same compound, the “Viable Germination SE Count” value [1, 9] was 2, the “Hypocotyl Extension %” value [1, 10] was 34% and the “Root Growth %” value [1, 10] was 27%. The “Viable Germination SE %” value [1, 10] was 21%, the “Hypocotyl Extension SE Count” value [1, 10] was 9 and the “Root Growth SE Count” value [1, 10] was 8. For the same compound, the “Viable Germination SE Count” value [1, 10] was 7, the “Hypocotyl Extension %” value [1, 11] was 26% and the “Root Growth %” value [1, 11] was 53%. The “Viable Germination SE %” value [1, 11] was 23%, the “Hypocotyl Extension SE Count” value [1, 11] was 14 and the “Root Growth SE Count” value [1, 11] was 16. The “Viable Germination SE Count” value [1, 11] was 6.
`O=[N+]([O-])[O-].[K+]` [KNO3] was tested, and the “embryo differentiation and maturation” value ([2]; increase in KNO3 in modified DGA solid medium) was “favored embryo differentiation but inhibited maturation” and the “maintenance of liquid suspension culture” value [3] was “facilitated maintaining the liquid suspension culture at early stages of embryogenesis”.
For `CC1=CC(=O)CC(C)(C)[C@@]1(O)/C=C/C(C)=C\C(=O)O` [abscisic acid], the plantlet abnormality [4] was “plantlet abnormality was apparently increased” and the improvement of germination ([4]; germination in MS medium) was “Improvement of germination in MS medium was not observed”.
`c1coc(CNc2ncnc3[nH]cnc23)c1` [Kinetin, kinetin] was tested, and the “TIISE (%) >5 SE” value ([5]; Kinetin 0.05 mg/l) was 15%, the “TIISE (%) >10 SE” value ([5]; Kinetin 0.05 mg/l) was 0% and the “TIISE (%) Total” value ([5]; Kinetin 0.05 mg/l) was 25%. The “TISE (%)” value ([5]; Kinetin 0.05 mg/l) was 35%, the “TIISE (%) >5 SE” value ([5]; Kinetin 0.1 mg/l) was 15% and the “TIISE (%) >10 SE” value ([5]; Kinetin 0.1 mg/l) was 5%. For the same compound, the “TIISE (%) Total” value ([5]; Kinetin 0.1 mg/l) was 30%, the “TISE (%)” value ([5]; Kinetin 0.1 mg/l) was 35% and the “TIISE (%) >5 SE” value ([5]; Kinetin 0.2 mg/l) was 15%. For the same compound, the “TIISE (%) >10 SE” value ([5]; Kinetin 0.2 mg/l) was 0%, the “TIISE (%) Total” value ([5]; Kinetin 0.2 mg/l) was 30% and the “TISE (%)” value ([5]; Kinetin 0.2 mg/l) was 40%. For the same compound, the “TIISE (%) >5 SE” value ([5]; Kinetin 0.5 mg/l) was 10%, the “TIISE (%) >10 SE” value ([5]; Kinetin 0.5 mg/l) was 5% and the “TIISE (%) Total” value ([5]; Kinetin 0.5 mg/l) was 20%. The “TISE (%)” value ([5]; Kinetin 0.5 mg/l) was 25%, the “TIISE (%) >5 SE” value ([5]; Kinetin 1 mg/l) was 0% and the “TIISE (%) >10 SE” value ([5]; Kinetin 1 mg/l) was 0%. The “TIISE (%) Total” value ([5]; Kinetin 1 mg/l) was 15%, the “TISE (%)” value ([5]; Kinetin 1 mg/l) was 45% and the TIISEs formation ([5]; kinetin 0-1 mg/l) was “appeared to negatively affect TIISEs formation”. For the same compound, the “induction of TISEs” value ([5]; kinetin 0-1 mg/l) was “played little role in induction of TISEs”.
In the case of `NC(=O)C[C@H](N)C(=O)O` [asparagine], the “production of secondary somatic embryos and embryogenic calli” value [2] is reported as “greatly improved production of secondary somatic embryos and embryogenenic calli”.
In the case of `NC(=O)CC[C@H](N)C(=O)O` [glutamine], the “production of secondary somatic embryos and embryogenic calli” value [2] is reported as “greatly improved production of secondary somatic embryos and embryogenenic calli”.
